What was measured:
Assay type in all cases: cell-based
[1] = tested on: MITF (microphthalmia transcription factor); assay: MITF mRNA expression (RT-PCR) in B16F10 melanoma cells; details: 200 nM α-MSH, fucosterol 5 and 20 μM, 24 hrs, FIG. 7
Procedure: B16F10 melanoma cells were incubated in a DMEM medium including 10% fetal bovine serum and then added in a 6-well plate with 2.5×10^5 cell/mL (the final volume of 3 mL). After being incubated for 24 hrs, the medium was removed and fucosterol which was dissolved in the DMEM medium including 200 nM α-MSH was treated at 5 and 20 μM of concentrations, respectively. After 24 hrs, the total RNA was isolated by using a TRIzol reagent (Invitrogen, Carlsbad, Calif., USA). The isolated total RNAs were quantified by using a nano-drop (ND-1000). The quantified RNA was synthesized to cDNA by using reverse transcriptase and a PCR machine (Applied biosystems, Foster city, CA, USA) and then the PCR was performed with specific primers below.
As the PCR result, the amplified cDNA was isolated with a 1.5% agarose gel by electrophoresis and cDNA bands were verified by using a G:BOX EF imaging system (Syngene, Cambridge, UK), and the result was illustrated in FIG. 7.

tyrosinase = biological target: T1, tyrosinase (Mus musculus, UniProt P11344); assay: Tyrosinase activity (L-DOPA, dopachrome) in α-MSH-stimulated B16F10 melanoma cells; details: 200 nM α-MSH, fucosterol 5, 10, 20 μM, 48 hrs, P<0.01, FIG. 4
T1 construct: endogenous in cells; host or cells: B16F10 melanoma cells (α-MSH stimulated)
T1 sequence (P11344 19-533): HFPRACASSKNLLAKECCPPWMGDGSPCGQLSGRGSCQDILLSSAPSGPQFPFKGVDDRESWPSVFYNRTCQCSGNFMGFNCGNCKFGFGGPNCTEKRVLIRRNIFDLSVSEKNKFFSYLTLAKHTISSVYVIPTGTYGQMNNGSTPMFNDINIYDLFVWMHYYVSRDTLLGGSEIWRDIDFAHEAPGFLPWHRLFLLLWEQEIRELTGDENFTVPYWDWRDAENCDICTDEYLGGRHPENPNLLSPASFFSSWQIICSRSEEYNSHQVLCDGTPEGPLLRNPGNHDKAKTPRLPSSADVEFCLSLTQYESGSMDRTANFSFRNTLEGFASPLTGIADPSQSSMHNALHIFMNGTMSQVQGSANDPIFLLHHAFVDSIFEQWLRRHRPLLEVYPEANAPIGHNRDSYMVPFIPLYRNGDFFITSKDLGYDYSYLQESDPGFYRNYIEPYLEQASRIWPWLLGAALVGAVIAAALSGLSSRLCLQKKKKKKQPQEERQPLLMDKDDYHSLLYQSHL
Procedure: B16F10 melanoma cells were incubated in a DMEM medium including 10% fetal bovine serum and then added in a 6-well plate with 2.5×10^5 cell/mL (the final volume of 3 mL). After being incubated for 24 hrs, the medium was removed and fucosterol which was dissolved in the DMEM medium including 200 nM α-MSH was treated at 5, 10, and 20 μM concentrations, respectively. After 48 hrs, the incubated medium was removed from the 6-well plate and PBS including 1% Triton X-100 was added to collect the cells. The collected cells were centrifuged for 10 min and 150 μL of a supernatant was put in a 96-well plate and 50 μL of L-3,4-dihydroxyphenylalanine (L-DOPA) was added. With respect to an amount of dopachrome generated after incubated for 30 min at 37° C., absorbance was measured at 475 nm by using a microplate reader (Versa max, Sunnyvale, Calif., USA). In this case, cells without the fucosterol were set to a control group and the tyrosinase activity degree was measured in the control group and cells treated with the fucosterol. According to Equation 2 below, the tyrosinase activity compared with the control group was calculated and the result was illustrated in FIG. 4. Tyrosinase activity (%) compared with control group=Reaction absorbance of each test material/Reaction absorbance of control group×100 [Equation 2]

B16F10 melanoma cells = assay: Microscopic observation of melanin generation in α-MSH-stimulated B16F10 melanoma cells; details: 200 nM α-MSH, fucosterol 5 and 20 μM, 72 hrs, FIG. 3
Procedure: B16F10 melanoma cells were incubated in a DMEM medium including 10% fetal bovine serum and then added in a 6-well plate with 2.5×10^5 cell/mL (the final volume of 3 mL). After being incubated for 24 hrs, the medium was removed and fucosterol which was dissolved in the DMEM medium including 200 nM α-MSH was treated at 5 and 20 μM of concentrations, respectively. After 72 hrs, the incubated medium was removed from the 6-well plate and the B16F10 melanoma cells were photographed by using a microscope (Olympus IX71 Model), and the result was illustrated in FIG. 3.

caspase 14 = assay: Caspase 14 protein expression (western blot) in HaCaT human keratinocytes; details: HaCaT cells, fucosterol 5, 10, 20 μM, 24 hrs, FIG. 12
Procedure: HaCaT human keratinocytes were incubated in a Dulbecco's Modified Eagle's Media (DMEM) medium including 10% fetal bovine serum and then put in a 6-well plate with 2×10^5 cell/ml (the final volume of 3 ml). After being incubated for 24 hrs, the medium was removed and fucosterol which was dissolved in the DMEM medium was treated at 5, 10, and 20 μM concentrations, respectively. After 24 hrs, the HaCaT human keratinocytes were lysed with a NP40 buffer solution including proteinase inhibitor cocktail. The protein amount extracted from the HaCaT human keratinocytes was quantified by using a Bradford method. The sample was boiled for 5 min and then the same amount of protein ([…]) was isolated by electrophoresis with 10% SDS-PAGE. The isolated proteins after electrophoresis were transferred to a nitrocellular membrane and western blot was performed. A primary antibody was reacted and the nitrocellular membrane was washed three times by using Tris-buffer saline tween20 (TBST) for 10 min. In this case, the kind and the dilution of the primary antibody used in the present invention is 1:1000. In a secondary antibody reaction, a secondary antibody was put in the membrane performing the primary antibody reaction and reacted for 2 hrs at room temperature. In this case, a dilution of the secondary antibody was 1:5000. […]

With `C/C=C(\CC[C@@H](C)[C@H]1CC[C@H]2[C@@H]3CC=C4C[C@@H](O)CC[C@]4(C)[C@H]3CC[C@]12C)C(C)C` [fucosterol] the “mRNA amount of MITF” value [1] was “reduced”, the “inhibitory effect on tyrosinase activity” value (tyrosinase) was “very excellent inhibitory effect” and the “melanin generation, microscopic observation” value (B16F10 melanoma cells) was “largely inhibited”. The “protein expression of caspase 14” value (caspase 14) was “increased”.

Reference: patent publication US9956157B2, “Composition containing fucosterol for skin whitening or moisturizing” (INDUSTRY-ACADEMIC COOPERATION FOUNDATION, YONSEI UNIVERSITY, priority 2014, dated 2018)
